The results in this text go back to ChEMBL document CHEMBL1177800, “Inhibition of ABCG2-mediated drug efflux by naphthopyrones from marine crinoids” (Bioorg Med Chem Lett, 2010).

Series [1] concerns the target T1, Broad substrate specificity ATP-binding cassette transporter ABCG2 (Homo sapiens, UniProt Q9UNQ0).
T1 sequence (Q9UNQ0 whole entry): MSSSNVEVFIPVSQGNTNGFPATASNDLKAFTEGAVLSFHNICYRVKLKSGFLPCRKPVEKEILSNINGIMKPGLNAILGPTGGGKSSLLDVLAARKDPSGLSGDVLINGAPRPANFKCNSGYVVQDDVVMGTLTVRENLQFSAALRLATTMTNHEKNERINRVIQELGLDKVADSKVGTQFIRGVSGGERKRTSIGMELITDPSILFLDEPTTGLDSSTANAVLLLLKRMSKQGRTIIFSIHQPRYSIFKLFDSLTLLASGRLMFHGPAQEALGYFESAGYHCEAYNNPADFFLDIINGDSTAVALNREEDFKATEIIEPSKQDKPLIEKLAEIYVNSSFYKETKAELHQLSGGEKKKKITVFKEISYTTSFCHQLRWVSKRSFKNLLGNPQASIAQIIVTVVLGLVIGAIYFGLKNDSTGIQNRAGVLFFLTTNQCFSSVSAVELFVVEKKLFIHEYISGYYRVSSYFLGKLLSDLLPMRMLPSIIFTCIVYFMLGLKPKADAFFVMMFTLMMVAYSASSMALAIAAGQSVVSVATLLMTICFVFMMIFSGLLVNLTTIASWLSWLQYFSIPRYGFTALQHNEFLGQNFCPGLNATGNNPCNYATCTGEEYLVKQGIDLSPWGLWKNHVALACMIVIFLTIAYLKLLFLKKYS
Description: Inhibition of ABCG2 expressed in human NCI-H460 cells assessed as inhibition of PhA accumulation relative to fumitremorgin C. The series is classed as cell-based.

Series [2] has as its target T1, Broad substrate specificity ATP-binding cassette transporter ABCG2. Put plainly: Inhibition of ABCG2-mediated drug efflux expressed in human NCI-H460 cells. The series is classed as cell-based.

Molecules are shown by their SMILES.

The IC50 is the concentration that gives 50% inhibition. For `COc1cc(O)c2c(O)c3c(=O)cc(C)oc3c(OC)c2c1`, the “inhibition (INH)” value in series [1] is on record as “Not Active”. Also, the IC50 result in series [2] (nci-h460) is reported as “Not Active”.

Take `CCCc1cc(=O)c2c(O)c3c(O)cc(OC)cc3c(OC)c2o1`: the “inhibition (INH)” value in series [1] is reported as “Not Active”. The IC50 result in series [2] (nci-h460) is on record as “Not Active”.

Consider `COc1c(O)c2c(=O)cc(C)oc2c2c(OC)cc(O)cc12`, for which the “inhibition (INH)” value in series [1] was found to be 59.3%. Besides, the IC50 in series [2] (read-out: IC50) came to 11.9 µM.

Take `COc1c(OC)c2c(=O)cc(C)oc2c2c(OC)cc(O)cc12`: the “inhibition (INH)” value in series [1] is “Not Active”. Besides, in series [2] (nci-h460), the IC50 entry is listed as “Not Active”.

For the molecule `CCCc1cc(=O)c2c(OC)cc3cc(O)cc(OC)c3c2o1`, in series [1], the “inhibition (INH)” value worked out at 46.3%. In addition, the IC50 in series [2] (read-out: IC50) was 5.9 µM.

Consider `CCCc1cc(=O)c2c(O)c3c(OC)cc(O)cc3cc2o1`, for which the “inhibition (INH)” value in series [1] was “Not Active”. Moreover, the IC50 result in series [2] (nci-h460) is reported as “Not Active”.

Regarding `COc1cc(O)cc2cc3oc(C)cc(=O)c3c(O)c12`, in series [1], the “inhibition (INH)” value is listed as “Not Active”. In series [2] (nci-h460), the IC50 entry is on record as “Not Active”.

For `CCCc1cc(=O)c2c(OC)c(OC)c3cc(O)cc(OC)c3c2o1`, the “inhibition (INH)” value in series [1] stood at 44%. Also, the half-inhibitory concentration (IC50) in series [2] (read-out: IC50) turned out to be 16.6 µM.

Turning to `CCCc1cc(=O)c2c(O)c(OC)c3cc(O)cc(OC)c3c2o1`, the “inhibition (INH)” value in series [1] came out at 27.5%. Moreover, the IC50 in series [2] (read-out: IC50) is greater than 20 µM.

Regarding `COc1cc(O)cc2cc(O)c3c(=O)cc(C)oc3c12`, in series [1], the “inhibition (INH)” value came out at 31%. In addition, in series [2] (read-out: IC50), the IC50 was determined as 12.8 µM.

Regarding `CCCc1cc(=O)c2c(O)cc3cc(O)cc(OC)c3c2o1` [COMAPARVIN], the “inhibition (INH)” value in series [1] is listed as 54.3%. Also, the IC50 in series [2] (read-out: IC50) came to 9 µM.
